“And” between values parts separate entries of the source, which are not always exact repeats. Equal values may be shown once.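 Dose response: 5 concentrations. Exposure: 48 h. Format: 96-well plates. Endpoint: linear interpolation; highest concentration if not reached. Here, GI50 denotes the concentration required for 50% inhibition of growth. TGI: concentration producing complete growth inhibition.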
Assays:
Assay in all cases: inhibition of tumour cell growth, NCI panel, 48 h
SF-539 CNS = system: SF-539 CNS
IGROV1 ovarian = system: IGROV1 ovarian
HCC-2998 colon = system: HCC-2998 colon
SK-MEL-28 melanoma = system: SK-MEL-28 melanoma
SK-OV-3 ovarian = system: SK-OV-3 ovarian
NCI-H460 lung = system: NCI-H460 lung
MDA-MB-231 breast = system: MDA-MB-231 breast
NCI/ADR-RES ovarian = system: NCI/ADR-RES ovarian
SF-295 CNS = system: SF-295 CNS
UO-31 renal = system: UO-31 renal

Row | SMILES | GI50 (SF-539 CNS) | TGI (SF-539 CNS) | GI50 (IGROV1 ovarian) [µM] | TGI (IGROV1 ovarian) | GI50 (HCC-2998 colon) | TGI (HCC-2998 colon) | GI50 (SK-MEL-28 melanoma) [µM] | TGI (SK-MEL-28 melanoma) [µM] | GI50 (SK-OV-3 ovarian) | TGI (SK-OV-3 ovarian) | GI50 (NCI-H460 lung) | TGI (NCI-H460 lung) | GI50 (MDA-MB-231 breast) | TGI (MDA-MB-231 breast) | GI50 (NCI/ADR-RES ovarian) | TGI (NCI/ADR-RES ovarian) | GI50 (SF-295 CNS) | TGI (SF-295 CNS) | GI50 (UO-31 renal) | TGI (UO-31 renal)
1 | Cc1ccc(C(=O)NCCCOc2ccc(N3C(N)=NC(N)=NC3(C)C)cc2Cl)cc1S(=O)(=O)F | 8.1 µM | > 100 µM | 4.42 | > 100 µM | 24 µM | > 100 µM | 74.7 | > 100 | > 100 µM | > 100 µM | 8.44 µM | > 100 µM | > 100 µM | > 100 µM | > 100 µM | > 100 µM | > 100 µM | > 100 µM | > 100 µM | > 100 µM
2 | CCCCCCCCCCCCCCCCCCNCc1ccc(Cl)cc1 | 12.1 µM | 29.4 µM | 1.91 | 5.24 µM | 4.58 µM | 18.9 µM | 13.8 | 28.8 | 4.02 µM | 16.9 µM | 2.05 µM | 4 µM | 1.84 µM | 4.3 µM | 3.58 µM | 18.2 µM | 12.6 µM | 28.8 µM | 1.6 µM | 3.45 µM
3 | NC(=S)N=Nc1c(O)[nH]c2c(Cl)cc(Cl)cc12 |  | 34.6 µM |  | > 100 µM |  | > 100 µM |  | 29.6 |  | > 100 µM |  | > 100 µM |  | 50.2 µM |  | 38.7 µM |  | 46.6 µM |  | > 100 µM
4 | O=C(O)C1CC=CCC1C(=O)Nc1cccc(O)c1 (centres undefined) |  | > 100 µM |  | > 100 µM |  | > 100 µM |  | > 100 |  | > 100 µM |  | > 100 µM |  | > 100 µM |  | > 100 µM |  | > 100 µM |  | > 100 µM
5 | CO[C@@H]1CCN(c2nccc(Nc3cc4c(C(C)C)ccc(N5CC(CS(C)(=O)=O)[C@H]5C)c4cn3)n2)C[C@@H]1F (some centres undefined) | 5.05 µM | 24.3 µM | 1.03 | 7.13 µM | 4.55 µM | 36 µM | 5.52 | > 100 | 7.42 µM | > 100 µM | 3.51 µM | 20.5 µM | 8.77 µM | > 100 µM | 2.81 µM | 9.74 µM | 3.15 µM | 10.1 µM | 1.41 µM | 11.9 µM
6 | Nc1ccccc1C#C/C=C\C#CC#C/C=C\C#Cc1ccccc1N | 3.96 µM | 16.6 µM | 2.21 | 17.9 µM | 2.25 µM | 8.03 µM | 14.6 | 36.7 | 22.8 µM | > 100 µM | 8.32 µM | 25.6 µM | 1.54 µM | 14.8 µM | 2.85 µM | 16.3 µM | 5.23 µM | 30.2 µM | 1.94 µM | 16.8 µM
7 | O=[N+]([O-])c1cccc(-c2nc(-c3ccc(Cl)cc3Cl)cn2-c2ccccc2)c1 | 1.02 µM | 4.33 µM | 1.2 | 3.86 µM | 2.99 µM | > 17.6 µM | 6.76 | 24.2 | 3.06 µM | 29.9 µM | 0.598 µM | 1.12 µM | 1.93 µM | > 20.5 µM | 1.56 µM | 15.6 µM | 0.452 µM | 0.976 µM | 1.19 µM | 7.29 µM
8 | COCCOCCOCc1n(Cc2ccc3ccccc3c2)c2ccccc2[n+]1Cc1ccc2ccccc2c1 | 0.587 µM | 2.01 µM | 0.328 | 1.55 µM | 0.56 µM | 2.06 µM | 0.503 | 1.92 | 1.14 µM | 2.49 µM | 0.483 µM | 1.85 µM | 0.38 µM | 1.64 µM | 15.1 µM | 44.3 µM | 0.691 µM | 2.16 µM | 1.83 µM | 4.58 µM
9 | CS(=O)(=O)Nc1cc(-c2ccc3ncnc(Nc4ccc(F)c(Cl)c4)c3c2)cnc1Cl | 0.431 µM and 0.541 µM | 2.52 µM and 3.33 µM | 0.114 | 0.495 µM | 1.21 µM | 4.05 µM | 0.345 | 9.61 | 0.255 µM and 0.317 µM | 1.34 µM and 2.71 µM | 0.753 µM and 0.98 µM | 11.5 µM and 12.9 µM | 0.98 µM and 1.07 µM | 3.21 µM and 5.92 µM | 2.06 µM and 2.07 µM | 30.5 µM and 20 µM | 0.612 µM and 0.606 µM | 4.11 µM and 3.85 µM | 0.204 µM | 1.69 µM
10 | CN1CCN(c2ccc(OC(F)(F)F)c(Nc3ncc4c(n3)-c3c(c(C(N)=O)nn3CCO)CC4)c2)CC1 | 0.0363 µM and 0.0682 µM | 12.4 µM and > 4.8 µM |  | 46.6 µM and > 10 µM | 0.0487 µM and 0.174 µM | 18.7 µM and > 4.38 µM | 0.738 | > 10 | 0.108 µM and 0.124 µM | 30.6 µM and > 10 µM | 0.0391 µM and 0.0849 µM | 14.9 µM and > 10 µM | 0.0755 µM and 0.059 µM | 8.61 µM and 3.23 µM | 1.19 µM and 1.04 µM | > 62.6 µM | 0.0575 µM and 0.244 µM | 18.6 µM and > 10 µM | 2.88 µM and 2.28 µM | 38.2 µM and > 9.18 µM
11 | Cc1cc(C(=O)/C=C/c2ccc[nH]2)ccc1-n1ccc(C(F)(F)F)n1 | 2.69 µM | 9.13 µM | 2.02 | 4.56 µM | 20.1 µM | > 100 µM | 41.8 | > 100 | 46.8 µM | > 100 µM | 24.3 µM | > 100 µM | 27.6 µM | > 100 µM | 17.1 µM | > 100 µM | 7.97 µM | > 100 µM | 1.4 µM | 2.72 µM

— PubChem BioAssay (NCI)
